{"source": "paper PMC10050424", "about": "“Structural basis of the substrate recognition and inhibition mechanism of Plasmodium falciparum nucleoside transporter PfENT1” (Nature Communications, 2023)", "key": {"PfENT1 mutant W53A": {"biological_target": "T1, PfENT1 mutant W53A (Plasmodium falciparum, UniProt Q8IDM6, W53A)", "T1 construct": "10xHis (N); made in house; host or cells: Sf9 insect cells (baculovirus)", "T1 sequence (Q8IDM6 whole entry W53A)": "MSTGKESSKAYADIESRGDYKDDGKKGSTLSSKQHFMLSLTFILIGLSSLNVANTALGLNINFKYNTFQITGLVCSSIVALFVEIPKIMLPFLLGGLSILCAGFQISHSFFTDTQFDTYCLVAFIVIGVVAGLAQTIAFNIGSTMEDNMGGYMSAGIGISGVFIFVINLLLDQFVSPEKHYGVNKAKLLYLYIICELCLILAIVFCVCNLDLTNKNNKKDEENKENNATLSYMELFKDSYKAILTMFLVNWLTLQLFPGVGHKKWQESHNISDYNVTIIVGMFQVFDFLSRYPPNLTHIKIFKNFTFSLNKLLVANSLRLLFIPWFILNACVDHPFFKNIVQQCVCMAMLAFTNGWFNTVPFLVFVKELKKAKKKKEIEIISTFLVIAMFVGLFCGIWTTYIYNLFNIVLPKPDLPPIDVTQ", "test": "ITC binding to PfENT1 mutant W53A", "method": "(§1) For the in vitro binding assay, Sf9 cells were solubilized in lysis buffer containing 2% (w/v) n-dodecyl-β-D-maltopyranoside (DDM, Anatrace) and protease inhibitor cocktail (0.8 μM aprotinin, 2 μM pepstatin, and 5 μg/ml leupeptin) at 4 °C for 2 h. The soluble supernatant was collected via centrifugation and incubated with Ni-NTA resin (QIAGEN) at 4 °C for 1 h. The resin was washed and eluted using lysis buffer containing 0.05% (w/v) DDM and 30 mM/300 mM imidazole. The protein was further purified by size-exclusion chromatography (Superdex 200 Increase 10/300; GE Healthcare) in buffer containing 25 mM MES (pH 6.0), 150 mM NaCl, and 0.05% (w/v) DDM. The peak fractions were pooled and concentrated to 10~50 μM for the nucleoside-binding assay.\n(§2) The binding affinity between wild-type and mutant PfENT1 with nucleosides and GSK4 was measured using a Micro-Cal ITC200 (Malvern). All proteins were prepared in 25 mM MES (pH 6.0), 150 mM NaCl, and 0.05% (w/v) DDM. Nucleosides (5~10 mM) and GSK4 (100-200 μM) dissolved in the same buffer were titrated against 20–50 μM PfENT1 proteins at 25 °C. PEAQ-ITC analysis software (MicroCal) was employed to analyze the data. All titrations were repeated three times."}, "PfENT1 mutant Q135A": {"biological_target": "T2, PfENT1 mutant Q135A (Plasmodium falciparum, UniProt Q8IDM6, Q135A)", "T2 construct": "10xHis (N); made in house; host or cells: Sf9 insect cells (baculovirus)", "T2 sequence (Q8IDM6 whole entry Q135A)": "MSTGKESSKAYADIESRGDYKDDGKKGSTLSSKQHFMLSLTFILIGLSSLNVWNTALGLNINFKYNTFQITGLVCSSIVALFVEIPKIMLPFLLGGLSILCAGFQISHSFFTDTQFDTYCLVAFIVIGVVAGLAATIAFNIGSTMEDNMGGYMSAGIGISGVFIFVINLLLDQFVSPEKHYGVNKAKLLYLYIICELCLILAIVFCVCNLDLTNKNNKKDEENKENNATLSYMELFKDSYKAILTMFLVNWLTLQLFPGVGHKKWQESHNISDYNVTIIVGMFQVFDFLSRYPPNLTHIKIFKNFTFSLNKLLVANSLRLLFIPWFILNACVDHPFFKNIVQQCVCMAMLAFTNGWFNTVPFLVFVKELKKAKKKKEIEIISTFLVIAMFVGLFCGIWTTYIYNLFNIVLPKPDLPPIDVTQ", "test": "ITC binding to PfENT1 mutant Q135A", "details": "Fig. 3c", "method": "as §1, §2"}, "PfENT1WT": {"biological_target": "T3, PfENT1WT (Plasmodium falciparum, UniProt Q8IDM6)", "T3 construct": "10xHis (N); made in house; host or cells: Sf9 insect cells (baculovirus)", "test": "biochemical", "type": "binding", "method": "as §1, §2"}, "PfENT1 mutant R291A": {"biological_target": "T4, PfENT1 mutant R291A (Plasmodium falciparum, UniProt Q8IDM6, R291A)", "T4 construct": "10xHis (N); made in house; host or cells: Sf9 insect cells (baculovirus)", "T4 sequence (Q8IDM6 whole entry R291A)": "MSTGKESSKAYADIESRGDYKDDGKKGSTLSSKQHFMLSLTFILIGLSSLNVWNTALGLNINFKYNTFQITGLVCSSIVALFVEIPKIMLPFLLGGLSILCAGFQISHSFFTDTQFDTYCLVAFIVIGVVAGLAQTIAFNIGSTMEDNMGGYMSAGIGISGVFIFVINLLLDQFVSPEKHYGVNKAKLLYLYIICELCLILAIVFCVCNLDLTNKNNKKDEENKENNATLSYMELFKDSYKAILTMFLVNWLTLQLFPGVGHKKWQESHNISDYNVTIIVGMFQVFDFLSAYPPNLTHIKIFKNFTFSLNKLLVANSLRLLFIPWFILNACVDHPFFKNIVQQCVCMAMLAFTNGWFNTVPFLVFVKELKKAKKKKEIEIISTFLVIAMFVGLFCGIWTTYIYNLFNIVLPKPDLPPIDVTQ", "test": "ITC binding to PfENT1 mutant R291A", "method": "as §1, §2"}, "PfENT1 R291A": {"biological_target": "T5, PfENT1 R291A (Plasmodium falciparum, UniProt Q8IDM6, R291A)", "T5 construct": "expressed in transfected cells; host or cells: S. cerevisiae BY4741, FUI1 deleted, PfENT1 mutant knock-in under the TEF1 promoter", "T5 sequence (Q8IDM6 whole entry R291A)": "as above", "test": "Inosine uptake assay, yeast expressing PfENT1 R291A", "type": "cell-based", "details": "Fig. 3d, construct R291A", "description": "(§3) Codon-optimized PfENT1 (for expression in yeast) was synthesized by Sangon Biotech. The carboxyl terminus of PfENT1 was HA-tagged through PCR. The TEF1p promoter and PGK1t terminator were amplified from BY4741 genomic DNA. Overlap PCR was applied to generate the gene overexpression cassette of PfENT1 (TEF1p promoter-PfENT1-PGK1t terminator). The two 600-bp homologous arms corresponding to the upstream and downstream regions of the FUI1 gene were amplified from BY4741 genomic DNA. The gene cassette of the ‘TEF1p promoter-PfENT1-PGK1t terminator’ together with the two homologous arms was cloned into the PUC19 plasmid through Gibson assembly, generating the final plasmid PUC19: PfENT1. PfENT1 mutations were generated using point mutation and verified by Sanger sequencing. The spacer targeting the FUI1 gene (5ʹ-[…]-3ʹ) was cloned into the pCas-BsaI plasmid to generate the pCas-FUI1 plasmid as described previously. […]\n(§4) Cells were grown overnight in YPD medium to mid-log phase and harvested by centrifugation at 3000 × g for 5 min. […] After washing by vacuum filtration with 2 ml ice-cold 2% glucose, the radioactivity retained on the filter was incubated with 1 mL of ULTIMA GOLD scintillation fluid (Perkin Elmer, 77-15311). Counts were measured using a liquid scintillation analyzer (Perkin Elmer, Tri-Carb 5110TR). […]"}, "PfENT1 mutant S49A": {"biological_target": "T6, PfENT1 mutant S49A (Plasmodium falciparum, UniProt Q8IDM6, S49A)", "T6 construct": "10xHis (N); made in house; host or cells: Sf9 insect cells (baculovirus)", "T6 sequence (Q8IDM6 1-422 S49A)": "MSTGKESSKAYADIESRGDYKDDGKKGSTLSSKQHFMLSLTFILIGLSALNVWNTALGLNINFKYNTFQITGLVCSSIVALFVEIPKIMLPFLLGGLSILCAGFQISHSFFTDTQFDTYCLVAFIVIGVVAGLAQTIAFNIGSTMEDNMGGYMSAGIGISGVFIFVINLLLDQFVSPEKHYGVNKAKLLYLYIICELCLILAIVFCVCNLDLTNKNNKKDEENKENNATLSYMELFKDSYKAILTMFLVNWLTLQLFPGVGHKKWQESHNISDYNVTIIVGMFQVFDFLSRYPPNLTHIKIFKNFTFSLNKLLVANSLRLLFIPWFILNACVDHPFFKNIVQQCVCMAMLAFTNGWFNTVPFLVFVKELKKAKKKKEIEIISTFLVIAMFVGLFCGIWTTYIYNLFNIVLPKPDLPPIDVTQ", "test": "ITC binding to PfENT1 mutant S49A", "details": "Fig. 3c", "method": "as §1, §2"}, "PfENT1 D287A": {"biological_target": "T7, PfENT1 D287A (Plasmodium falciparum, UniProt Q8IDM6, D287A)", "T7 construct": "expressed in transfected cells; host or cells: S. cerevisiae BY4741, FUI1 deleted, PfENT1 mutant knock-in under the TEF1 promoter", "T7 sequence (Q8IDM6 whole entry D287A)": "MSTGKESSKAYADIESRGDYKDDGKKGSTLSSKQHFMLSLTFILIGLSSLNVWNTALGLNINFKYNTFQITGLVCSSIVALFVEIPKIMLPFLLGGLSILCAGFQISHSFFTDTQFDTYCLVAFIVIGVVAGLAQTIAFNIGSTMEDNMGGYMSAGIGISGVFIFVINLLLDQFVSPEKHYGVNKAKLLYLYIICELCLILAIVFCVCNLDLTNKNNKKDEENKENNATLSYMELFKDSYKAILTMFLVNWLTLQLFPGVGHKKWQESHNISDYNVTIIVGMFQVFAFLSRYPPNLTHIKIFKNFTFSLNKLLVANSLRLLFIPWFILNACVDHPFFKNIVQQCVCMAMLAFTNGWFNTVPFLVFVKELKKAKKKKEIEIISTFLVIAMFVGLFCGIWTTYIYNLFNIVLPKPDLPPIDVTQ", "test": "Inosine uptake assay, yeast expressing PfENT1 D287A", "type": "cell-based", "details": "Fig. 3d, construct D287A", "description": "as §3, §4"}}, "note": "Several values for one entry are separate records, joined by “and”; a condition that tells them apart may be missing. Equal entries are not always repeated. Where two headings read alike, the source gives them in different places."}
{"compound": "OC[C@H]1O[C@@H](n2cnc3c(O)ncnc32)[C@H](O)[C@@H]1O", "note": "[Inosine, inosine]", "values": [{"measurement": "Kd", "setting": "PfENT1 mutant W53A; Kd, Mean and Mean ± SD, source data Figure 3c, construct W53A", "result": 1830, "unit": "µM"}, {"measurement": "Kd", "setting": "PfENT1 mutant W53A; Kd, N=3 (individual experiments), source data Figure 3c, construct W53A", "result": "1900 µM and 1940 µM and 1650 µM"}, {"measurement": "Kd", "setting": "PfENT1 mutant W53A; binding affinity (Kd), ITC, Fig. 3c, mutant W53A, mean ± SD (n = 3)", "result": "1830 ± 157", "unit": "µM"}, {"measurement": "weaker binding than the wild type", "setting": "PfENT1 mutant W53A; inosine binding, W53A versus wild type", "result": 30, "unit": "fold"}, {"measurement": "binding affinity (Kd)", "setting": "PfENT1 mutant Q135A", "result": "complete abolishment"}, {"measurement": "Kd", "setting": "PfENT1WT; Kd, Mean and Mean ± SD, source data Figure 1a", "result": 64.7, "unit": "µM"}, {"measurement": "Kd", "setting": "PfENT1WT; Kd, N=3 (individual experiments), source data Figure 1a", "result": "52.3 µM and 64.2 µM and 77.7 µM"}, {"measurement": "Kd", "setting": "PfENT1WT; binding affinity (Kd), ITC, 25 °C, pH 6.0, mean ± SD (n = 3), Fig. 1a and text", "result": "64.7 ± 12.7", "unit": "µM"}, {"measurement": "Kd", "setting": "PfENT1WT; read-out: Kd, Mean and Mean ± SD, source data Figure 1a", "result": "64.7 ± 12.7", "unit": "µM"}, {"measurement": "binding affinity (Kd)", "setting": "PfENT1 mutant R291A; ITC, Fig. 3c, mutant R291A, mean ± SD (n = 3)", "result": "maintains inosine binding"}, {"measurement": "Kd", "setting": "PfENT1 mutant R291A; Kd, Mean and Mean ± SD, source data Figure 3c, construct R291A", "result": 46.7, "unit": "µM"}, {"measurement": "Kd", "setting": "PfENT1 mutant R291A; Kd, N=3 (individual experiments), source data Figure 3c, construct R291A", "result": "53 µM and 56 µM and 31 µM"}, {"measurement": "Kd", "setting": "PfENT1 mutant R291A; binding affinity (Kd), ITC, Fig. 3c, mutant R291A, mean ± SD (n = 3)", "result": "46.7 ± 13.6", "unit": "µM"}, {"measurement": "Uptake of [3H]-inosine (Percentage of PfENT1 WT)", "setting": "PfENT1 R291A", "result": "lost the transport activity"}, {"measurement": "binding affinity (Kd)", "setting": "PfENT1 mutant S49A", "result": "complete abolishment"}, {"measurement": "Uptake of [3H]-inosine (Percentage of PfENT1 WT)", "setting": "PfENT1 D287A", "result": "abolished the transport activity"}]}
